Measured values as given in ChEMBL document CHEMBL6103667, “Novel Cyclic Peptides Inhibiting Tumor Necrosis Factor Receptor 1 Activity” (ACS Med Chem Lett, 2025).
Numbered stars: 1 amine (or outer) side, 2 acyl side, 3 side chain; on linkers, the order of the positions; unused ones are H or OH. Bridge positions count the residues as written; N and C are the ends. Square brackets hold non-standard residues; d marks the D form. Peptide text beside a SMILES is read from it. X1 = COc1cccc2c([C@H](C)[C@](C)(N[*:1])C(=O)[*:2])c[nH]c12; Morpholine(3S-CO,6,6-Me2) = CC1(C)CN[C@H](C(=O)O)CO1; Trp(7-Cl) = N[C@@H](Cc1c[nH]c2c(Cl)cccc12)C(=O)O; Phe(4-COOH) = N[C@@H](Cc1ccc(C(=O)O)cc1)C(=O)O; X2 = O=C([C@H]1CC[C@@H](N[*:1])C1)[*:2]; Pip(4-aza) = O=C(O)[C@@H]1CNCCN1; 4Pal = N[C@@H](Cc1ccncc1)C(=O)O; NMeE = CN[C@@H](CCC(=O)O)C(=O)O; X3 = CC[C@H](C(=O)[*:1])[*:2]; NEtAla = CCN[C@@H](C)C(=O)O; αMeS = C[C@](N)(CO)C(=O)O; Nle = CCCC[C@H](N)C(=O)O; Sar = CNCC(=O)O

Columns and labels:
[1] = molecular target: T1, Tumor necrosis factor receptor superfamily member 1A (Homo sapiens, UniProt P19438); assay: Binding affinity to C-terminal Avi-tagged human TNFRl extracted from Sf21 baculovirus expression system assessed as dissociation constant incubated for 20 hrs in presence of ATP by SPR analysis
T1 sequence (P19438 whole entry): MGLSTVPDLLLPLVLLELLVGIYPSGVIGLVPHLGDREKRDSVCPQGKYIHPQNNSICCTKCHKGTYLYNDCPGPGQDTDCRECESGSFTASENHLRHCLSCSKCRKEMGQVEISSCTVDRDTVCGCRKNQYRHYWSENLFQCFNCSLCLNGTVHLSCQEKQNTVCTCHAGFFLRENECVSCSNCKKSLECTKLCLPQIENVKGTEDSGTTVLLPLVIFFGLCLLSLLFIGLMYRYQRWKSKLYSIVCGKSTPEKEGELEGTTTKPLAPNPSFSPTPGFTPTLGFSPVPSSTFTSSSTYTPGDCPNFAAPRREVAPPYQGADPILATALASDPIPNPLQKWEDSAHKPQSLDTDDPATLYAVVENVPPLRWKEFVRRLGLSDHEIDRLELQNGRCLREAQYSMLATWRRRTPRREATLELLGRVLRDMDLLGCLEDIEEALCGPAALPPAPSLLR

[2] = molecular target: T2, Tumor necrosis factor receptor superfamily member 1B (Homo sapiens, UniProt P20333); assay: Binding affinity to C-terminal Avi-tagged human TNFR2 extracted from Sf21 baculovirus expression system assessed as dissociation constant incubated for 20 hrs in presence of ATP by SPR analysis
T2 sequence (P20333 whole entry): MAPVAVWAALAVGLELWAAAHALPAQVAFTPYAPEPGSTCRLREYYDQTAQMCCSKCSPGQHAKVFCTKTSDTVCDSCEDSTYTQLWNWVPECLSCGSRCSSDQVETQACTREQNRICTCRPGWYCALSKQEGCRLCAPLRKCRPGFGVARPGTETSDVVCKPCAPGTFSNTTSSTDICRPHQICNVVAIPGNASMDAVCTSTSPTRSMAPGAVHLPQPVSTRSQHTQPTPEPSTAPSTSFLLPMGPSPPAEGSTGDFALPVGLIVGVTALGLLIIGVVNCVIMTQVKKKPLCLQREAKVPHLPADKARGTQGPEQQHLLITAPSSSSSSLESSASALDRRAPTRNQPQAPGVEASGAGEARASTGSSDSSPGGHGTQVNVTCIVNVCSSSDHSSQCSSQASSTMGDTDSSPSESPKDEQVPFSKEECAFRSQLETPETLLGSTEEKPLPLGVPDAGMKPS

[3] = molecular target: T1, Tumor necrosis factor receptor superfamily member 1A; assay: Displacement of biotinylated peptide from C-terminal 6His-tagged human soluble TNFR1 (1 to 211 residues) extracted from Sf21 baculovirus expression system incubated for 90 mins by LanthaScreen Eu based TR-FRET binding assay
[4] = Inhibition of TNFalpha-induced NF-kappaB signal transduction pathway in human THP-1 cells preincubated for 1 hrs followed by TNFalpha addition and measured after 16 to 18 hrs by luminescence based microplate reader; assay type: cell-based

Structure (SMILES)	Kd [1] [nM]	Kd [2] [nM]	IC50 [3] [nM]	IC50 [4] [nM]
CCCC[C@@H]1NC(=O)[C@@H](CC)SC[C@@H](C(N)=O)NC(=O)[C@](C)([C@@H](C)c2c[nH]c3c(OC)cccc23)NC(=O)CN(C)C(=O)[C@H](Cc2ccc(O)cc2)NC(=O)[C@H](Cc2ccc(C(=O)O)cc2)NC(=O)[C@](C)(CO)NC(=O)[C@H](Cc2c[nH]c3c(Cl)cccc23)NC(=O)[C@H](Cc2ccncc2)NC(=O)[C@H](CC(N)=O)NC(=O)[C@H](CCC(=O)O)N(C)C(=O)[C@H](Cc2c[nH]c3ccccc23)NC(=O)[C@@H]2COC(C)(C)CN2C(=O)[C@H](Cc2ccncc2)NC1=O ([Nle][4Pal][Morpholine(3S-CO,6,6-Me2)]W[NMeE]N[4Pal][Trp(7-Cl)][αMeS][Phe(4-COOH)]Y[Sar][X1]C-NH2; linker N-14 via X3)	0.2	> 1000	0.55	2.2
CCCC[C@@H]1NC(=O)CSC[C@@H](C(N)=O)NC(=O)[C@](C)([C@@H](C)c2c[nH]c3c(OC)cccc23)NC(=O)CN(C)C(=O)[C@H](Cc2ccc(O)cc2)NC(=O)[C@H](Cc2ccc(C(=O)O)cc2)NC(=O)[C@](C)(CO)NC(=O)[C@H](Cc2c[nH]c3c(Cl)cccc23)NC(=O)[C@H](Cc2ccncc2)NC(=O)[C@H](CC(N)=O)NC(=O)[C@H](C)N(CC)C(=O)[C@H](Cc2c[nH]c3ccccc23)NC(=O)[C@@H]2COC(C)(C)CN2C(=O)[C@H](Cc2ccncc2)NC1=O ({CH2CO}-[Nle][4Pal][Morpholine(3S-CO,6,6-Me2)]W[NEtAla]N[4Pal][Trp(7-Cl)][αMeS][Phe(4-COOH)]Y[Sar][X1]C-NH2; thioether N-14)	0.14	> 1000	0.6	0.8
CCCC[C@@H]1NC(=O)[C@H]2CC[C@H](C2)NC(=O)[C@](C)([C@@H](C)c2c[nH]c3c(OC)cccc23)NC(=O)CN(C)C(=O)[C@H](Cc2ccc(O)cc2)NC(=O)[C@H](Cc2ccc(C(=O)O)cc2)NC(=O)[C@](C)(CO)NC(=O)[C@H](Cc2c[nH]c3c(Cl)cccc23)NC(=O)[C@H](Cc2ccncc2)NC(=O)[C@H](CC(=O)O)NC(=O)[C@H](CCC(=O)O)N(C)C(=O)[C@H](Cc2c[nH]c3ccccc23)NC(=O)[C@@H]2CNCCN2C(=O)[C@H](Cc2ccncc2)NC1=O (cyclo([4Pal][Trp(7-Cl)][αMeS][Phe(4-COOH)]Y[Sar][X1][X2][Nle][4Pal][Pip(4-aza)]W[NMeE]D))	0.1	> 1000	0.2	1.2
